Measured values taken from patent US20240009150A1, “CAPSAICYNS IN THE TREATMENT OF LEAKY GUT” (AXICHEM AB [SE]/[SE], priority 2020, published 2024).
“Also recorded” adds a separate entry of the source. Marks after values point to notes of the source that are not given here.

What was measured:
[1] = tested on: P. aeruginosa (ATCC® 15442); experiment: Inhibition of biofilm formation, crystal violet staining assay; assay type: cell-based, Pseudomonas aeruginosa; details: for Biofilm (OD 595 nm): 24 hr; for Biofilm (OD 595 nm) / biofilm formed (CVSA), in words: 30° C.; for inhibition of biofilm formation, conclusion in words: any dose tested; for biofilm formed (CVSA), in words: concentrations less than 125 ug/ml
Protocol: (§1) A stock solution of 1000 ug of V and capsaicin was prepared by dissolving 1000 μg in 100 μl of ethanol and 900 μl of sterile water. The stock solutions were sequentially diluted with double volumes of solvent (10% aqueous ethanol solution) to yield 500/125//31.25/7.81 μg/ml test solutions.
(§2) P. aeruginosa (ATCC® 15442) was used to determine the biofilm inhibition activity. Inducer N-hexanoyl homoserine lactone (C6-HSL) was purchased from Sigma-Aldrich. ATCC® 15442 was cultivated in Luria-Bertani (LB) medium (LB, 5 g yeast extract, 10 g tryptone, 5 g NaCl, 1 L water) at 30° C. overnight under aerobic conditions.
(§3) Biofilm formation was quantified with modifications using the method described by Stepanovic et al. (Journal of Microbiological Methods, 2000, 40(2), 175-19) with modifications. Using a 96-well microplate duplicate the test solutions were filled at the above selected doses. Cultures were grown for 18 hr in LB at 30° C. and adjusted to OD 0.1 at 600 nm. 20 μL of the culture were added into each well and the remainder of the volume to 200 μL per well was filled with LB. Unused external wells were filled with 200 μL of sterile water to prevent evaporation.
(§4) After 24 hr of incubation, supernatants were discarded, and the wells were washed three times with 200 μL of sterile phosphate buffered saline (PBS). Bacteria adhered to the wells were fixed with 200 μL of methanol for 15 min, the methanol was discarded, and the plates dried at 25° C.
(§5) Each well was stained with 200 μL of 0.3% (w/v) crystal violet solution for 5 min at 25° C. Crystal violet excess was pipetted out, and the wells were rinsed five times with sterile PBS. 200 μL of 33% (v/v) glacial acetic acid were added to the wells for 30 min to solubilise the dye adhered to the cell walls. Optical density (OD) was measured at 595 nm using a microplate spectrophotometer as a direct measure of biofilm formation. P. aeruginosa in 3% DMSO will be used as the negative control.

[2] = tested on: Escherichia coli O157:H7; experiment: as above; assay type: cell-based; details: for Biofilm (OD 595 nm): 24 hr; for Biofilm (OD 595 nm) / biofilm formed (CVSA), in words: 30° C.
Protocol: as §3, §4, §5
as §1, with “μg” for “ug”, “phenylcapsaicin” for “V”, “μL” for “μl”, “double and then quadruple” for “double”, “500/125/31.25 (32)/7.81 (8)” for “500/125//31.25/7.81”
as §2, with “E. coli O157:H7” for “P. aeruginosa (ATCC® 15442)”, “E. coli O157:H7” for “ATCC® 15442”, “37°” for “30°”
Crystal violet staining assay was performed as in Experiment 3, using E. coli O157:H7 in 3% DMSO as the control.

[3] = Rage Paulsen et al., Toxicology Research and Application 2018; cited from earlier work

Row | Structure (SMILES) | Biofilm (OD 595 nm) ([1]; 7.81 μg/mL) | Biofilm (OD 595 nm) ([1]; 31.125 μg/mL) | Biofilm (OD 595 nm) ([1]; 125 μg/mL) | inhibition of biofilm formation, conclusion in words [1] | biofilm formed (CVSA), in words [1] | Biofilm (OD 595 nm) ([2]; 8 μg/mL) | Biofilm (OD 595 nm) ([2]; 32 μg/mL) | Biofilm (OD 595 nm) ([2]; 125 μg/mL) | biofilm formation inhibition, in words ([2]; 125, 32 and 8 μg/ml, any dose tested) | biofilm formed (CVSA), in words ([2]; 8 μg/ml lowest dose tested) | biofilm formed (CVSA), in words ([2]; 125 and 32 μg/ml) | safety with regards to gene mutations and chromosomal damage [3] | systemic toxicity [3]
1 | COc1cc(CNC(=O)CCCC/C=C/C(C)C)ccc1O [Capsaicin, (E)-N-(4-hydroxy-3-methoxybenzyl)-8-methylnon-6-enamide, reference compound] | 7.1^a OD 595 nm | 7.0^a OD 595 nm | 7.2^a OD 595 nm | did not exhibit any biofilm formation inhibition | did not show any reduction of biofilm formation | 5.9^a OD 595 nm | 5.8^a OD 595 nm | 5.1^a OD 595 nm | did not show any reduction of biofilm formation; also recorded: did not exhibit any biofilm formation inhibition |  |  |  | 
2 | COc1cc(CNC(=O)CCCCC#Cc2ccccc2)ccc1O [Phenylcapsaicin, N-[(4-hydroxy-3-methoxyphenyl)methyl]-7-phenylhept-6-ynamide] | 1.7^b OD 595 nm | 1.3^b OD 595 nm | 1.9^b OD 595 nm | potent inhibitor of biofilm formation | significantly reduced | 4.9^b OD 595 nm | 2.4^b OD 595 nm |  |  | no effect | significantly reduced; also recorded: good inhibitor of biofilm formation | safe | low systemic toxicity
